From ChEMBL document CHEMBL1201862, “PubChem BioAssay data set” (2004)
Active and inactive are the calls of the source.

Columns and labels:
[1] = target: T1, Heat shock factor protein 1 (Mus musculus, UniProt P38532); experiment: enhancement of HSF1-driven luciferase signal – cell-based, NIH3T3, luminescence, dose retest, confirmation (AID 435004); assay type: functional;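 further: stress induced by proteasome inhibitor MG132 added 30 min after compound; luciferase reporter driven by HSF1 response element in NIH3T3 cells; actives raise luminescence as potentiators of the MG132 stress response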
T1 sequence (P38532 whole entry): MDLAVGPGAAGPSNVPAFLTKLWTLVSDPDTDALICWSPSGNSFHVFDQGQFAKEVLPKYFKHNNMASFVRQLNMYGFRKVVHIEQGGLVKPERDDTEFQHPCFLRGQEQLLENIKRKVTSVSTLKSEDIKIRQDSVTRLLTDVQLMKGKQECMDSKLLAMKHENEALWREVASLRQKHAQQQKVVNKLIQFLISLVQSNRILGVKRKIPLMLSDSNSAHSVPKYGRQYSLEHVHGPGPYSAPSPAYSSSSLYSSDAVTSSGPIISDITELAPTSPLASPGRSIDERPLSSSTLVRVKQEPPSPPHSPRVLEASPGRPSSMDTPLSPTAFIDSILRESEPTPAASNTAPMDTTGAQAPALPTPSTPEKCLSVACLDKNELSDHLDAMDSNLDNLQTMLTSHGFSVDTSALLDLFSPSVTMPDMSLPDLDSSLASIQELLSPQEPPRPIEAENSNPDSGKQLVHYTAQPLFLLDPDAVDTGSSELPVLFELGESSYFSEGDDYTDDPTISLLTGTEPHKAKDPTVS

[2] = target: T2, Rac GTPase-activating protein 1 (Homo sapiens, UniProt Q9H0H5); experiment: blockers of MgcRacGAP-driven Rac1 GTP hydrolysis – biochemical, ADP Hunter fluorescence, primary and confirmatory, confirmation (AID 624330); assay type: functional
T2 sequence (Q9H0H5 whole entry): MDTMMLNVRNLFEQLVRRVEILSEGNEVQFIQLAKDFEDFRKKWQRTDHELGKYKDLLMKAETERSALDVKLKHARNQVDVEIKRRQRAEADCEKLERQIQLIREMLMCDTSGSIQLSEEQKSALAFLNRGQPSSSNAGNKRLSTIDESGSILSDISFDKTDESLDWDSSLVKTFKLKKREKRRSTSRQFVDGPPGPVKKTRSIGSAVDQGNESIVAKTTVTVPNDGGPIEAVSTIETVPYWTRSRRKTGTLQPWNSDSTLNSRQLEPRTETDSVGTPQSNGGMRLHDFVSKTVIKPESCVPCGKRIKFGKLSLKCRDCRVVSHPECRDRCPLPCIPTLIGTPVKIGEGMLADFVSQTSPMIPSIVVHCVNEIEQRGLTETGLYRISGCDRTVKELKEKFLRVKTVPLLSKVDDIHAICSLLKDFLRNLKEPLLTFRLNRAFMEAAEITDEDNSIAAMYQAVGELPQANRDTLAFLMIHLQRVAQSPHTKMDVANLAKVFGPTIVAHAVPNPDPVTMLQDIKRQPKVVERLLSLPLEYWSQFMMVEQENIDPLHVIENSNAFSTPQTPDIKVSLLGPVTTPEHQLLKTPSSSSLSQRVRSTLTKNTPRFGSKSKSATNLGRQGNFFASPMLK

cells = assay type: functional
Cytochrome P450 2C19 = Cytochrome P450 2C19 (Homo sapiens, UniProt P33261); experiment: Cytochrome panel assay with activity outcomes. Panel member name: p450-cyp2c19 Compounds with AC50 equal or less than 10 uM are considered active; assay type: functional; conditions: read-out: AC50
Cytochrome P450 2C19, sequence (P33261 whole entry): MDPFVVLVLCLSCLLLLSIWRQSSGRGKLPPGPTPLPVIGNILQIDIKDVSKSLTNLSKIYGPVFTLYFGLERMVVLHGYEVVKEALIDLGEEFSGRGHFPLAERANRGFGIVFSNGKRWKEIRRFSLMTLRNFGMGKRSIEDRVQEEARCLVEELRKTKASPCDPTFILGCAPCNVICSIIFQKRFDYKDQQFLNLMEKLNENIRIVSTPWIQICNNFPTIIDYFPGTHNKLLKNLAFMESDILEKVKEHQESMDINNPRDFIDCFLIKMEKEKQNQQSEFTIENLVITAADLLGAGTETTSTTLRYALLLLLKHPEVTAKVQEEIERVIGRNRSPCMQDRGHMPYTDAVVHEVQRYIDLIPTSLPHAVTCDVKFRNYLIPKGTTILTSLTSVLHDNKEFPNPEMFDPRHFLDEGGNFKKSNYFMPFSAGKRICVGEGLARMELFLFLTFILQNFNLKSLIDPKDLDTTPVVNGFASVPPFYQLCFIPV

[3] = target: FAD-linked sulfhydryl oxidase ALR (Homo sapiens, UniProt P55789); experiment: ALR-catalysed DTT oxidation blockers – biochemical, H2O2 detection, luminescence, cherry-pick, dose response (AID 493248)
FAD-linked sulfhydryl oxidase ALR, sequence (P55789 whole entry): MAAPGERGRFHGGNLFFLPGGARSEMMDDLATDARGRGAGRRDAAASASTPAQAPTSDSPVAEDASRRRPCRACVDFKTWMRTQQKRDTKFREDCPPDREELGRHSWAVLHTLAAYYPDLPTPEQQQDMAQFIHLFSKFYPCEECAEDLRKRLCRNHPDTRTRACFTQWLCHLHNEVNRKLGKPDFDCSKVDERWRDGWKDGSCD

[4] = loss of viability in HepG2 cells – cell-based, CellTiter-Glo, cherry-picked, cytotoxicity control for Shn3 inhibitor project, dose response (AID 624134); assay type: functional
[5] = reduction of Shn3 3'UTR-driven luciferase in osteoblasts – cell-based, Clone20 osteoblasts, firefly luciferase, cherry-picked, dose response (AID 624132); assay type: functional;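 further: firefly luciferase luminescence from reporter carrying the Shn3 3'UTR in osteoblasts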
[6] = luciferase reporter signal suppression in cells – H4 neuroglioma cells, luminescence, dose response (AID 1990); assay type: functional, cell-based
Nonstructural protein 1 = Nonstructural protein 1 (Influenza A virus, UniProt Q194T2); assay type: functional, Influenza A virus (A/California/07/2009(H1N1))
Nonstructural protein 1, sequence (Q194T2 whole entry): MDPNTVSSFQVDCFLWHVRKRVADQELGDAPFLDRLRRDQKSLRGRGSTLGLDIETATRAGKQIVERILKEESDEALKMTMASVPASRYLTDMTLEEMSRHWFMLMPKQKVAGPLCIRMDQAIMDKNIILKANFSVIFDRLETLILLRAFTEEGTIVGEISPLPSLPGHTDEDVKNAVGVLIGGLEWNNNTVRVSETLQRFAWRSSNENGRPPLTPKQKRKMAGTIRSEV

[7] = non-specific 3'UTR reporter inhibition in Clone20-Shn3RL – cell-based, Renilla luciferase, cherry-picked, counter-screen for Shn3 inhibitor project, dose response (AID 624133); assay type: functional
[8] = Luminescence Cell-Based Dose Response HTS to Identify Inhibitors of 5'UTR Stem-Loop Driven Prion Protein mRNA Translation in H4 Neuroglioblastoma Cells. [Related pubchem assays: 1827 (Project Summary), 1813 (Primary HTS)]; assay type: functional
[9] = alpha-synuclein stem-loop luciferase translation blockers – H4 neuroglioma cells, luminescence, confirmation (AID 1988); assay type: functional, cell-based
[10] = target: Induced myeloid leukemia cell differentiation protein Mcl-1 (Homo sapiens, UniProt Q07820); assay type: functional
Induced myeloid leukemia cell differentiation protein Mcl-1, sequence (Q07820 whole entry): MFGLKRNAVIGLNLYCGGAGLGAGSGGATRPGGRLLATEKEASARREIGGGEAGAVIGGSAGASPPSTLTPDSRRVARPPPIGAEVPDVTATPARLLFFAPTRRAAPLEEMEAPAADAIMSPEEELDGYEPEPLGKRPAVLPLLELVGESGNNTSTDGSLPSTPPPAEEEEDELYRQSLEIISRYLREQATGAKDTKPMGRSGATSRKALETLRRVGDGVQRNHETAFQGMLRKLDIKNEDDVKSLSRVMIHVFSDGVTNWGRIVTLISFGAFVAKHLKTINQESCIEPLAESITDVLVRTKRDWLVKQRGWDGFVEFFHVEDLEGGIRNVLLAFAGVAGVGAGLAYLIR

[11] = target: T1, Heat shock factor protein 1; experiment: decrease of HSF1-responsive luciferase luminescence – cell-based, NIH3T3, dose retest, confirmation (AID 2382); assay type: functional;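 further: NIH3T3 fibroblasts with HSF1-driven luciferase reporter stressed by proteasome inhibitor MG132; luminescence from HSF1-driven luciferase expression after 8 hours of MG132 stress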
Cytochrome P450 3A4 = Cytochrome P450 3A4 (Homo sapiens, UniProt P08684);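 further: CYP3A4 tested as one member of a cytochrome P450 panel screen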
Cytochrome P450 3A4, sequence (P08684 whole entry): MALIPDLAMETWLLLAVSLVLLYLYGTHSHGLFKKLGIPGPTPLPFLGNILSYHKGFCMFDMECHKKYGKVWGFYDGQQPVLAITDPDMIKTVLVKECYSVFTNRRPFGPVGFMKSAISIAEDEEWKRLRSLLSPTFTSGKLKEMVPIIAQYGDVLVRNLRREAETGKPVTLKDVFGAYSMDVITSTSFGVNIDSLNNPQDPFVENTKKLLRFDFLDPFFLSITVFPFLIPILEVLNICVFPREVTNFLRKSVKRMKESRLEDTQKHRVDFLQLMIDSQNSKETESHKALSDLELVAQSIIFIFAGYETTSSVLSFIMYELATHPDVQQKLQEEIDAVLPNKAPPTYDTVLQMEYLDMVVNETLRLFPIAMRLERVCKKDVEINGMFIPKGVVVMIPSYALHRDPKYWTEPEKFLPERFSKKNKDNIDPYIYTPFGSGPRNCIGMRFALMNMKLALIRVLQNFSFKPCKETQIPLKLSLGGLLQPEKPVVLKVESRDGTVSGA

With `COCc1cc(CN2CCCC(C(=O)Nc3ccc(-c4ccco4)cc3)C2)ccc1OC` (stereo not given) the EC50 [1] was > 260 µM (inactive).
For `C/C(CC(=O)Nc1ccc(N(C)C)cc1)=N\NC(=O)c1ccc(F)cc1`, the IC50 [2] was 47.4 µM (active).
In the case of `CN(C)S(=O)(=O)c1cc(NC(=O)CNCCN2CCOCC2)ccc1Cl`, the IC50 [2] is reported as 154 µM (active).
For `CC(C)(C)NC(=O)c1cccc(NC(=O)CSc2ccc(Cl)cc2)c1`, the EC50 [1] was > 260 µM (inactive).
For `Cc1oc(=O)c(NC(=O)c2ccccc2)cc1C(=O)c1ccccc1`, the IC50 (cells) was > 50 µM (active) and the AC50 (Cytochrome P450 2C19) was 8.91 µM (inconclusive).
With `COc1cc(/C=N/NC(=O)CC(=O)NC2CCCCC2)ccc1O` the IC50 [2] was 51.6 µM (active) and the AC50 [3] was 0.175 µM (active).
In the case of `O=C(CSc1n[nH]c(-c2ccccn2)n1)Nc1cccc(Cl)c1`, the AC50 [4] is reported as 3.81 µM (active), the AC50 [5] is reported as 2.9 µM (active) and the EC50 [6] is reported as 10.3 µM (active). The IC50 (Nonstructural protein 1) was 8.24 µM (active), the AC50 [7] was 2.9 µM (active) and the EC50 [8] was 8.65 µM (active). The EC50 [9] was 9 µM (active).
In the case of `CC(=O)NCCC(=O)Nc1sc2c(c1-c1nc3ccccc3[nH]1)CCCC2`, the AC50 [3] is reported as 4.69 µM (active).
In the case of `Cc1ccccc1-n1c(C)cc(/C=N/NC(=O)c2ccncc2)c1C`, the IC50 (cells) is reported as 0.18 µM (active).
In the case of `O=C(Oc1ccc(N(C(=O)c2ccncc2)S(=O)(=O)c2cccs2)cc1)c1ccncc1`, the IC50 [2] is reported as 86 µM (active).
With `Cc1occc1C(=O)N1CCCC(Nc2ccc(C(C)C)cc2)C1` (stereo not given) the AC50 [3] was 3.97 µM (active).
For `CC(C(=O)Nc1cc([N+](=O)[O-])ccc1Cl)N1CCN(c2ccc(O)cc2)CC1` (stereo not given), the IC50 [10] was 4.33 µM (not active).
In the case of `COc1cccc(N2CCN(Cc3nnnn3C3CCCCC3)CC2)c1`, the EC50 [11] is reported as > 195 µM (not active) and the AC50 [3] is reported as 5.12 µM (active).
With `CCC(C)(C)c1ccc(OC(=O)c2cccnc2Cl)cc1` the EC50 [1] was 46.8 µM (active).
For `Cc1ccc(NC(=O)N/C=C/c2ccco2)cc1C`, the AC50 (Cytochrome P450 3A4) was 12.6 µM (inconclusive) and the AC50 [3] was 1.7 µM (active).
